Laboratory results: patent US20040121965A1, “Method of treating resistant tumors” (Wyeth Holdings Corporation, priority 2002, published 2004)
Read-outs that look alike come from different tables or passages of the source. Marks after values point to notes of the source that are not given here.

Assays:
PC3MM2 = experiment: Cell survival assay (SRB), PC3MM2; format: cell-based; settings: Homo sapiens
Experimental: (§1) 2.2. Cell Survival Assay: Standard Pharmacological Test Procedure. […] Compounds are incubated with cells for 3 days.

[1] = tested on: Human Melanoma Carcinoma Lox; settings: for % T/C on day 7 / % T/C on day 12: Lox, days 1,5,9; for Activity in nude mice animal model (% T/C @ MTD on days 11-15) LOX: staged LOX xenograft, at MTD ('<': MTD not achieved); for inhibition of growth of Lox melanoma xenografts: day 14, P<0.01
KB-HTI-4.0 = experiment: Cell survival assay, KB-3-1 line made resistant to Example 129 (KB-HTI-4.0); format: cell-based, human; settings: for IC50: Homo sapiens
SW620 = experiment: Cell survival assay (SRB), SW620; format: cell-based; settings: Homo sapiens, SW-620, 72 h
Experimental: as §1

A431 = experiment: Cell survival assay (SRB), A431; format: cell-based; settings: Homo sapiens, A-431, 72 h
Experimental: as §1

Capan-1 = experiment: Cell survival assay (SRB), Capan-1; format: cell-based; settings: Homo sapiens
Experimental: as §1

[2] = tested on: KB-PTX-15+099 tumor xenografts; experiment: Growth of tumors in nude mice, KB-PTX-15+099 xenograft; settings: days 1,8,15
BT474 = experiment: Cell survival assay (SRB), BT474; format: cell-based; settings: Homo sapiens, BT-474, 72 h
Experimental: as §1

1A9 = experiment: Cell survival assay (SRB), 1A9; format: cell-based; settings: Homo sapiens
Experimental: as §1

A498 = experiment: Cell survival assay (SRB), A498; format: cell-based; settings: Homo sapiens
Experimental: as §1

HL60 = experiment: Cell survival assay (MTS), HL60; format: cell-based; settings: Homo sapiens
SK-MES-1 = experiment: Cell survival assay (SRB), SK-MES-1; format: cell-based; settings: Homo sapiens
Experimental: as §1

Moser = experiment: Cell survival assay (SRB), Moser; format: cell-based; settings: 72 h
Experimental: as §1

[3] = tested on: human carcinoma xenografts; experiment: Growth of tumors in nude mice, several xenograft models and tolerated dose; format: in vivo
From the text: 2.4. Growth of Tumors in Nude Mice.

[4] = LOX xenograft model, IV days 1, 5 and 9

CC(=O)O[C@H]1C(=O)[C@@]2(C)[C@H]([C@H](OC(=O)c3ccccc3)[C@]3(O)C[C@H](OC(=O)[C@H](O)[C@@H](NC(=O)c4ccccc4)c4ccccc4)C(C)=C1C3(C)C)[C@]1(OC(C)=O)CO[C@@H]1C[C@@H]2O [paclitaxel, reference compound]
IC50 (PC3MM2; 72 h, PC3MM2, prostate, 3 days, SRB staining, read-out: IC50): 8.7 nM
% T/C on day 7 ([1]; paclitaxel 60 mg/kg IV): 16** %
% T/C on day 12 ([1]; paclitaxel 60 mg/kg IV): 4** %
Activity in nude mice animal model (% T/C @ MTD on days 11-15) LOX [1]: 4%
IC50 (KB-HTI-4.0; KB-3-1 line made resistant to Example 129, Table 8, read-out: KB-HTI-4.0 IC50): 3.18 ± 0.62 nM
IC50 (SW620; SW620, colon, 3 days, SRB staining, read-out: IC50): 18 nM
IC50 (A431; A431, squamous, 3 days, SRB staining, read-out: IC50): 7.6 nM
IC50 (Capan-1; 72 h, Capan-1, pancreatic, 3 days, SRB staining, read-out: IC50): 4 nM
% T/C on day 6 ([2]; paclitaxel 60 mg/kg IV): 103%
% T/C on day 9 ([2]; paclitaxel 60 mg/kg IV): 93%
% T/C on day 13 ([2]; paclitaxel 60 mg/kg IV): 89%
% T/C on day 16 ([2]; paclitaxel 60 mg/kg IV): 87%
% T/C on day 20 ([2]; paclitaxel 60 mg/kg IV): 90%
IC50 (BT474; BT474, breast, 3 days, SRB staining, read-out: IC50): 10 nM
IC50 (1A9; 72 h, 1A9, ovarian, 3 days, SRB staining, read-out: IC50): 5.1 ± 0.9 nM
IC50 (A498; 72 h, A498, renal, 3 days, SRB staining, read-out: IC50): 27.5 nM
IC50 (HL60; HL-60, 72 h, HL60, leukemia, 3 days, MTS assay, read-out: IC50): 1.8 nM
IC50 (HL60; HL-60, HL60 parental, Table 5, read-out: HL60 IC50, nM (N)): 1.8 nM
IC50 (SK-MES-1; 72 h, SK-MES-1, NSCLC, 3 days, SRB staining, read-out: IC50): 29 nM
IC50 (Moser; Moser, colon, 3 days, SRB staining, read-out: IC50): 1590 ± 1990 nM
response of tumors ([3]; DLD-1, MX-1W or HCT-15 tumors, at or near the MTD): no response

CN[C@H](C(=O)N[C@H](C(=O)N(C)[C@H](/C=C(\C)C(=O)O)C(C)C)C(C)(C)C)C(C)(C)c1ccccc1 [Example 129, N,β,β-trimethyl-L-phenylalanyl-N^1-[(1S,2E)-3-carboxy-1-isopropylbut-2-enyl]-N^1,3-dimethyl-L-valinamide]
IC50 (PC3MM2; PC3MM2, 72 h): 1.9 ± 0.1 nM
inhibition of growth of Lox melanoma xenografts ([1]; 2 mg/kg oral gavage days 1,5,9): 63%
inhibition of growth of Lox melanoma xenografts ([1]; 3 mg/kg oral gavage days 1,5,9): 97%
weight loss ([1]; 2 and 3 mg/kg oral gavage days 1,5,9): less than 10%
growth inhibition of melanoma Lox tumors ([1]; IV in saline, days 1, 5, 9 post-staging, 0.5-1 mg/kg, tumors 1-2 gram): > 95%
maximum effective dose [1, 4]: ~1.6 mg/kg
minimum effective dose [1, 4]: approximately 200 μg/kg
% T/C on day 7 ([1]; Example 129 1.6 mg/kg IV): 12** %
% T/C on day 12 ([1]; Example 129 1.6 mg/kg IV): 2** %
Activity in nude mice animal model (% T/C @ MTD on days 11-15) LOX [1]: 2.5%
(RR) relative resistance vs. parental cells (KB-HTI-4.0): (12)
resistance of KB-3-1-derived cell lines selected with Example 129 (KB-HTI-4.0): approximately 12 fold
IC50 (KB-HTI-4.0; KB 3-1, read-out: KB-HTI-4.0 IC50, nM): 6.5 ± 1.6 nM
IC50 (SW620): 3.6 ± 0.8 nM
IC50 (A431): 2.4 ± 0.4 nM
IC50 (Capan-1; CAPAN-1, 72 h): 1.4 nM
% T/C on day 6 ([2]; Example 129 1.25 mg/kg IV): 32** %
% T/C on day 9 ([2]; Example 129 1.25 mg/kg IV): 19** %
% T/C on day 13 ([2]; Example 129 1.25 mg/kg IV): 9** %
% T/C on day 16 ([2]; Example 129 1.25 mg/kg IV): 10** %
% T/C on day 20 ([2]; Example 129 1.25 mg/kg IV): 7** %
IC50 (BT474): 2.5 ± 1.6 nM
IC50 (1A9; 1A9, 72 h): 0.56 ± 0.09 nM
IC50 (A498; A498, 72 h): 0.8 nM
IC50 (HL60; HL-60, 72 h): 0.21 ± 0.05 nM
IC50 (HL60; HL-60, read-out: HL60 IC50, nM (N)): 0.212 ± 0.048 nM
IC50 (SK-MES-1; SK-MES-1, 72 h): 2.6 nM
IC50 (Moser): 5.3 ± 4.1 nM
inhibition of tumor growth ([3]; tumors derived from DLD-1, MX-1W or HCT-15): 60-95%
